The values below come from ChEMBL document CHEMBL5055626 (J Med Chem, 2021).

Experiment [1] is described as follows: Antagonist activity at rat nAChR alpha7 Y200F mutant expressed in xenopus oocytes assessed as inhibition of Ach- induced response at -70 mV holding potential preincubated for 5 mins followed by Ach stimulation by voltage-clamp based electrophysiological method. In kind it is cell-based. The settings on record: Oocyte.
The target in experiment [2] is Neuronal acetylcholine receptor; alpha4/beta4 (Rattus norvegicus) (UniProt P09483+P12392). The experiment can be described thus: Antagonist activity at rat alpha4beta4 nAChR expressed in xenopus oocytes assessed as inhibition of Ach- induced response at 10 uM at -70 mV holding potential preincubated for 5 mins followed by Ach stimulation by voltage-clamp based electrophysiological method. In kind it is cell-based. To be noted: Oocyte.

Experiment [3] in a line: Antagonist activity at rat nAChR alpha7 N184S mutant expressed in xenopus oocytes assessed as inhibition of Ach- induced response at -70 mV holding potential preincubated for 5 mins followed by Ach stimulation by voltage-clamp based electrophysiological method. In kind it is cell-based. The settings on record: Oocyte.
Experiment [4] concerns the target Neuronal acetylcholine receptor; alpha3/beta4 (Rattus norvegicus) (UniProt P04757+P12392). The experiment can be described thus: Antagonist activity at rat alpha3beta4 nAChR expressed in xenopus oocytes assessed as inhibition of Ach- induced response at 10 uM at -70 mV holding potential preincubated for 5 mins followed by Ach stimulation by voltage-clamp based electrophysiological method. The settings on record: Oocyte. In kind it is cell-based.

The target of experiment [5] is Neuronal acetylcholine receptor; alpha3/beta4 (Rattus norvegicus, UniProt P04757+P12392). The experiment is described as follows: Antagonist activity at rat alpha3beta4 nAChR expressed in xenopus oocytes assessed as inhibition of Ach- induced response at -70 mV holding potential preincubated for 5 mins followed by Ach stimulation by voltage-clamp based electrophysiological method. In kind it is cell-based, Oocyte.

The target in experiment [6] is Neuronal acetylcholine receptor; alpha4/beta2 (Rattus norvegicus) (UniProt P09483+P12390). The experiment can be described thus: Antagonist activity at rat alpha4beta2 nAChR expressed in xenopus oocytes assessed as inhibition of Ach- induced response at 10 uM at -70 mV holding potential preincubated for 5 mins followed by Ach stimulation by voltage-clamp based electrophysiological method. To be noted: Oocyte. Format: cell-based.

A short description of experiment [7]: Antagonist activity at rat nAChR alpha7 Q141H mutant expressed in xenopus oocytes assessed as inhibition of Ach- induced response at -70 mV holding potential preincubated for 5 mins followed by Ach stimulation by voltage-clamp based electrophysiological method. In kind it is cell-based. To be noted: Oocyte.
In experiment [8] the target is Neuronal acetylcholine receptor; alpha2/beta2 (Rattus norvegicus) (UniProt P12389+P12390). The experiment can be described thus: Antagonist activity at rat alpha2beta2 nAChR expressed in xenopus oocytes assessed as inhibition of Ach- induced response at 10 uM at -70 mV holding potential preincubated for 5 mins followed by Ach stimulation by voltage-clamp based electrophysiological method. In kind it is cell-based. To be noted: Oocyte.

Experiment [9] concerns the target Neuronal acetylcholine receptor; alpha3/beta2 (Rattus norvegicus, UniProt P04757+P12390). The experiment can be described thus: Antagonist activity at rat alpha3beta2 nAChR expressed in xenopus oocytes assessed as inhibition of Ach- induced response at -70 mV holding potential preincubated for 5 mins followed by Ach stimulation by voltage-clamp based electrophysiological method. In kind it is cell-based, Oocyte.

In experiment [10] the target is Neuronal acetylcholine receptor; alpha4/beta4 (Rattus norvegicus, UniProt P09483+P12392). The experiment is described as follows: Antagonist activity at rat alpha4beta4 nAChR expressed in xenopus oocytes assessed as inhibition of Ach- induced response at -70 mV holding potential preincubated for 5 mins followed by Ach stimulation by voltage-clamp based electrophysiological method. In kind it is cell-based, Oocyte.

In experiment [11] the target is Neuronal acetylcholine receptor; alpha2/beta4 (Rattus norvegicus) (UniProt P12389+P12392). The experiment can be described thus: Antagonist activity at rat alpha2beta4 nAChR expressed in xenopus oocytes assessed as inhibition of Ach- induced response at 10 uM at -70 mV holding potential preincubated for 5 mins followed by Ach stimulation by voltage-clamp based electrophysiological method. Format: cell-based. To be noted: Oocyte.

Experiment [12] addresses Neuronal acetylcholine receptor; alpha2/beta2 (Rattus norvegicus, UniProt P12389+P12390). The experiment can be described thus: Antagonist activity at rat alpha2beta2 nAChR expressed in xenopus oocytes assessed as inhibition of Ach- induced response at -70 mV holding potential preincubated for 5 mins followed by Ach stimulation by voltage-clamp based electrophysiological method. Format: cell-based, Oocyte.

Experiment [13] is described as follows: Antagonist activity at rat nAChR alpha7 S167G mutant expressed in xenopus oocytes assessed as inhibition of Ach- induced response at -70 mV holding potential preincubated for 5 mins followed by Ach stimulation by voltage-clamp based electrophysiological method. Format: cell-based. To be noted: Oocyte.
Experiment [14] in a line: Antagonist activity at human nAChR alpha7 S184N mutant expressed in xenopus oocytes assessed as inhibition of Ach- induced response at -70 mV holding potential preincubated for 5 mins followed by Ach stimulation by voltage-clamp based electrophysiological method. In kind it is cell-based. To be noted: Oocyte.
The target of experiment [15] is Nicotinic acetylcholine receptor alpha9/alpha10 (Rattus norvegicus, UniProt P43144+Q9JLB5). The experiment is described as follows: Antagonist activity at rat alpha9alpha10 nAChR expressed in xenopus oocytes assessed as inhibition of Ach- induced response at -70 mV holding potential preincubated for 5 mins followed by Ach stimulation by voltage-clamp based electrophysiological method. Format: cell-based, Oocyte.

The nature of experiment [16]: Antagonist activity at rat nAChR alpha7 M177V mutant expressed in xenopus oocytes assessed as inhibition of Ach- induced response at -70 mV holding potential preincubated for 5 mins followed by Ach stimulation by voltage-clamp based electrophysiological method. Format: cell-based. The settings on record: Oocyte.
Experiment [17] can be described thus: Antagonist activity at rat nAChR alpha7 K186R mutant expressed in xenopus oocytes assessed as inhibition of Ach- induced response at -70 mV holding potential preincubated for 5 mins followed by Ach stimulation by voltage-clamp based electrophysiological method. In kind it is cell-based. To be noted: Oocyte.
In experiment [18] the target is Neuronal acetylcholine receptor; alpha2/beta4 (Rattus norvegicus, UniProt P12389+P12392). The experiment is described as follows: Antagonist activity at rat alpha2beta4 nAChR expressed in xenopus oocytes assessed as inhibition of Ach- induced response at -70 mV holding potential preincubated for 5 mins followed by Ach stimulation by voltage-clamp based electrophysiological method. Format: cell-based, Oocyte.

A short description of experiment [19]: Antagonist activity at human nAChR alpha7 H141Q mutant expressed in xenopus oocytes assessed as inhibition of Ach- induced response at -70 mV holding potential preincubated for 5 mins followed by Ach stimulation by voltage-clamp based electrophysiological method. The settings on record: Oocyte. In kind it is cell-based.
A short description of experiment [20]: Antagonist activity at rat nAChR alpha7 N77T mutant expressed in xenopus oocytes assessed as inhibition of Ach- induced response at -70 mV holding potential preincubated for 5 mins followed by Ach stimulation by voltage-clamp based electrophysiological method. In kind it is cell-based. To be noted: Oocyte.
A short description of experiment [21]: Antagonist activity at rat nAChR alpha7 M69V mutant expressed in xenopus oocytes assessed as inhibition of Ach- induced response at -70 mV holding potential preincubated for 5 mins followed by Ach stimulation by voltage-clamp based electrophysiological method. Format: cell-based. The settings on record: Oocyte.
A short description of experiment [22]: Antagonist activity at human nAChR alpha7 H141Q/S184N/R186K triple mutant expressed in xenopus oocytes assessed as inhibition of Ach- induced response at -70 mV holding potential preincubated for 5 mins followed by Ach stimulation by voltage-clamp based electrophysiological method. Format: cell-based. The settings on record: Oocyte.
A short description of experiment [23]: Antagonist activity at human nAChR alpha7 R186K mutant expressed in xenopus oocytes assessed as inhibition of Ach- induced response at -70 mV holding potential preincubated for 5 mins followed by Ach stimulation by voltage-clamp based electrophysiological method. In kind it is cell-based. The settings on record: Oocyte.

Each structure is given as a SMILES string. The source made the active and inactive calls. The calls are words filed in the database; no cut-off is given here. Where a SMILES comes first, the peptide text is derived from it. Bridges are numbered along the chain shown (N, C = ends).

Sequence of Neuronal acetylcholine receptor; alpha4/beta4 (P09483 whole entry): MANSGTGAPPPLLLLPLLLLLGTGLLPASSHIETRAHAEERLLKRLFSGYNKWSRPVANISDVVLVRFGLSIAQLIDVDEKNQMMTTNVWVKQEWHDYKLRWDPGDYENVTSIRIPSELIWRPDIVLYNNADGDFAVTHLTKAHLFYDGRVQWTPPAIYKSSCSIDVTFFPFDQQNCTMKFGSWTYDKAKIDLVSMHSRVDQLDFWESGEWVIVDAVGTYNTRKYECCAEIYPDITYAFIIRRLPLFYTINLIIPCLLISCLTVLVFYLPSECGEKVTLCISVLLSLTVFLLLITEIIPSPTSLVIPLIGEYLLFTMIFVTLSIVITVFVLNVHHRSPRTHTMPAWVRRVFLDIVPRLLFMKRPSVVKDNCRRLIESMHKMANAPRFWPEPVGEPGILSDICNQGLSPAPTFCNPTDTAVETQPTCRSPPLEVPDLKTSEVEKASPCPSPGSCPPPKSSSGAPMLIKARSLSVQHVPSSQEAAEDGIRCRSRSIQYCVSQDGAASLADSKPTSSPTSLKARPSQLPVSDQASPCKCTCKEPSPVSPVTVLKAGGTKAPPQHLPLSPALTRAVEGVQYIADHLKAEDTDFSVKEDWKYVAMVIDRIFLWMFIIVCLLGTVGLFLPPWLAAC
Sequence of Neuronal acetylcholine receptor; alpha4/beta4 (P12392 whole entry): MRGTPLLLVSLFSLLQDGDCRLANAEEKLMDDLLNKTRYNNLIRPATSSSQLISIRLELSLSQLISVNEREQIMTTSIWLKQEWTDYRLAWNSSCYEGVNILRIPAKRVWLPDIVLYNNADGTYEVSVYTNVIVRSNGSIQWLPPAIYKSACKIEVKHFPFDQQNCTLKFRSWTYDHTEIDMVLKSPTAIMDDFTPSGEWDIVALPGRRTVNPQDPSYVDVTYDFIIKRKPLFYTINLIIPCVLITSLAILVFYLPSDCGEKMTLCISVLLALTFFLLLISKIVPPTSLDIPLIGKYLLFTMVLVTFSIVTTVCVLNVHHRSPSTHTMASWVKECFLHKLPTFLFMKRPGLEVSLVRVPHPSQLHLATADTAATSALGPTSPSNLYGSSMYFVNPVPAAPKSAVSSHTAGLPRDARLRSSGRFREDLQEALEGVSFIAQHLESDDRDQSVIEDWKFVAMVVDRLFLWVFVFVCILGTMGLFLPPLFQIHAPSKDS
Sequence of Neuronal acetylcholine receptor; alpha2/beta2 (P12389 whole entry): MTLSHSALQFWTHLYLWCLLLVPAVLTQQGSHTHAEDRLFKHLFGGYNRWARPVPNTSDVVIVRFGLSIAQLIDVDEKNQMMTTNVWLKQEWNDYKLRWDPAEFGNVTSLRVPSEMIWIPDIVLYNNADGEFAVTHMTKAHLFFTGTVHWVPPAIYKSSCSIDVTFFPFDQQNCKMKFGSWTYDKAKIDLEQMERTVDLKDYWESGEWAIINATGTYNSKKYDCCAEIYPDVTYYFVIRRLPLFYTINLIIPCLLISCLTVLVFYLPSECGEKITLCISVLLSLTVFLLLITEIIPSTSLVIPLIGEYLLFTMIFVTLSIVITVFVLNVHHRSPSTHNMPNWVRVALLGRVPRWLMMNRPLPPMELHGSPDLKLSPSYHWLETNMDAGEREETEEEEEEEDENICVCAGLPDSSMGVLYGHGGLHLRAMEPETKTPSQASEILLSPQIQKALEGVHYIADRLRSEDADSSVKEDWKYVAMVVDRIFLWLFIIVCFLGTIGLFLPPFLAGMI
Sequence of Neuronal acetylcholine receptor; alpha2/beta2 (P12390 whole entry): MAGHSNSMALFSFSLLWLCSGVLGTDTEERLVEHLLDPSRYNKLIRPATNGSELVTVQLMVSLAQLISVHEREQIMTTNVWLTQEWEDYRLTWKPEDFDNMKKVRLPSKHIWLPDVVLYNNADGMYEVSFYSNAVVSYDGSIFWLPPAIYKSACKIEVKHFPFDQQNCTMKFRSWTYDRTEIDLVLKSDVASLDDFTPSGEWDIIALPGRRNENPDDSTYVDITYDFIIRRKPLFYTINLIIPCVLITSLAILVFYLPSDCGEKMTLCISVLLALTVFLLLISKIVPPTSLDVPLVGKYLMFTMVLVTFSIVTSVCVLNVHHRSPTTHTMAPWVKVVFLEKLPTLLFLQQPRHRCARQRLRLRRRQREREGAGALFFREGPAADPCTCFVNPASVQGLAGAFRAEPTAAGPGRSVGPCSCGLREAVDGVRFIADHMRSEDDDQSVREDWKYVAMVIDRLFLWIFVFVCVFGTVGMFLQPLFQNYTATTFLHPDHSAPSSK
Sequence of Neuronal acetylcholine receptor; alpha2/beta4 (P12389 whole entry): as the sequence (P12389 whole entry) above
Sequence of Neuronal acetylcholine receptor; alpha2/beta4 (P12392 whole entry): as the sequence (P12392 whole entry) above
Sequence of Nicotinic acetylcholine receptor alpha9/alpha10 (P43144 whole entry): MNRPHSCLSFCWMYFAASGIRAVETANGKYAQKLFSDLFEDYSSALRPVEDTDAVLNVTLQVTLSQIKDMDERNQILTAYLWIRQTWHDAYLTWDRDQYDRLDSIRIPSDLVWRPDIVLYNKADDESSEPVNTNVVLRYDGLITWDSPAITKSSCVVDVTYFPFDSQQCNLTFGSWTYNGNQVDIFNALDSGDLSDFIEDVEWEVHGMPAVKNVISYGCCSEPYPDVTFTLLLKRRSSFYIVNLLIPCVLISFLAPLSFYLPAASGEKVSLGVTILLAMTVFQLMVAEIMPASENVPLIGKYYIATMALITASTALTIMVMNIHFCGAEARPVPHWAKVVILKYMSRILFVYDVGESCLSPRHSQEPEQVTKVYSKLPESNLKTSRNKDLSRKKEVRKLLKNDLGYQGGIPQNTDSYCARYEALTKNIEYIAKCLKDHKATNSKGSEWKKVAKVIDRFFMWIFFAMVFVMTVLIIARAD
Sequence of Nicotinic acetylcholine receptor alpha9/alpha10 (Q9JLB5 whole entry): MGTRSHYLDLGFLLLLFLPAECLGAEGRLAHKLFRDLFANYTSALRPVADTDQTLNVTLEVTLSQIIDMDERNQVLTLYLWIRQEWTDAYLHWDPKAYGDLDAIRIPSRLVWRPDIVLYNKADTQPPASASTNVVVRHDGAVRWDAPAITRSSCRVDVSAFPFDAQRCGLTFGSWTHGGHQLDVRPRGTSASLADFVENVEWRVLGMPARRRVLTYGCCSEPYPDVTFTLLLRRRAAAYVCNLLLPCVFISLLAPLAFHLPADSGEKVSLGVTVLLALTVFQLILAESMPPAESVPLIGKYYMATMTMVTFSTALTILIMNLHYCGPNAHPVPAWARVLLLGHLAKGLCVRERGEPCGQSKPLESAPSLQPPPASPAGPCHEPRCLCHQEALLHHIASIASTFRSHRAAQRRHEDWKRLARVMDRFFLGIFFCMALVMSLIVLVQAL
Sequence of Neuronal acetylcholine receptor; alpha3/beta2 (P04757 whole entry): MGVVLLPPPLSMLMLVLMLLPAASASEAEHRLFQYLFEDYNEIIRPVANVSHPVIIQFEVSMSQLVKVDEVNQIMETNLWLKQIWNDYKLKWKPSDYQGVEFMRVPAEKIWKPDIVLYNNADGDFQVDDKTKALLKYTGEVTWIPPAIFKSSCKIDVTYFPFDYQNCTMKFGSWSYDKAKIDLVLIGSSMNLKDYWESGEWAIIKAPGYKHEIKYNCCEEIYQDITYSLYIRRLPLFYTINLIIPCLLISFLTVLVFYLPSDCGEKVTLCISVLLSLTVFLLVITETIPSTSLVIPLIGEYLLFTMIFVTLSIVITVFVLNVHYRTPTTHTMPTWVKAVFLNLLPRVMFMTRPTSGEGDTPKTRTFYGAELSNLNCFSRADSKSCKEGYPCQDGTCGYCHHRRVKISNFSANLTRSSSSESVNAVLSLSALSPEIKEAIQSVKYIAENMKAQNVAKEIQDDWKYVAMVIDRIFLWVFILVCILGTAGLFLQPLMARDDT
Sequence of Neuronal acetylcholine receptor; alpha3/beta2 (P12390 whole entry): as the sequence (P12390 whole entry) above
Sequence of Neuronal acetylcholine receptor; alpha3/beta4 (P04757 whole entry): as the sequence (P04757 whole entry) above
Sequence of Neuronal acetylcholine receptor; alpha3/beta4 (P12392 whole entry): as the sequence (P12392 whole entry) above

With `C[C@@H]1NC(=O)[C@@H]2CSSC[C@H](NC(=O)CN)C(=O)N[C@@H](CSSC[C@@H](C(N)=O)NC(=O)[C@H](Cc3cnc[nH]3)NC(=O)[C@H](CCC(=O)O)NC(=O)[C@H](Cc3cnc[nH]3)NC1=O)C(=O)N[C@@H](CO)C(=O)N[C@@H](CC(N)=O)C(=O)N1CCC[C@H]1C(=O)N1CCC[C@H]1C(=O)N2` (H-GCCSNPPCAHEHC-NH2; disulfide 2-8, 3-13), the IC50 in experiment [1] was 190 nM; in experiment [3], 710 nM; in experiment [5] it was over 10000 nM; in experiment [7], 300 nM; in experiment [9] it was 350 nM; in [10], over 10000 nM. Also, the IC50 in [12] was over 10000 nM; in [13] it was 200 nM; in experiment [14], 850 nM; in experiment [15] it was over 10000 nM; in experiment [16], 160 nM; in [17], 430 nM. In addition, the concentration for half-maximal inhibition (IC50) in [18] is over 10000 nM; in [19], 1070 nM; in experiment [20], 160 nM; in experiment [21], 130 nM; in experiment [22] it was 220 nM; in [23] it was 1130 nM. Besides, the inhibition entry in experiment [2], in experiment [4], in experiment [6], in [8] and in experiment [11] was “inactive” throughout.
